Results taken from US20080125396A1, “Derivatives of Isothiazol-3(2H)-Thione 1,1-Dioxides as Liver X Receptor Modulators” (AtraZeneca AB, priority 2005, published 2008).

Biological target: T1, LXRα (Homo sapiens, UniProt Q13133)
T1 construct: human LXRalpha (amino acid 205-447); expressed in transfected cells; host or cells: U2/OS osteosarcoma cells electroporated with pSGGAL-LXRalpha (pSG5 vector)
T1 sequence (Q13133 205-447): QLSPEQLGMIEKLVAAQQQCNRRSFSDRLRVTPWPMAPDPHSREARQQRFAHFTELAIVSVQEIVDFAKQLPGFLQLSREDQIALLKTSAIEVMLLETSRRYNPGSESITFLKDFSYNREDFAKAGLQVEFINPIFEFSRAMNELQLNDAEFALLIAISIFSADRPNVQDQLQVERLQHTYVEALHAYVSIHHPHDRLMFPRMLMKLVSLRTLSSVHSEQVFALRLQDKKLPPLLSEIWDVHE
Test: Transactivation (reporter gene) assay in U2/OS cells
Format: cell-based
Conditions: GAL4-LXRalpha LBD luciferase reporter, U2/OS osteosarcoma cells, 48 h
Experimental: Expression vectors were prepared by inserting the ligand binding domain cDNA (complementary DNA) of human LXRalpha (amino acid 205-447) and LXRbeta (amino acid 216-461) in frame with, 3′ to the yeast GAL4 transcription factor DNA binding domain and the nuclear localization signal from the T-antigen of Polyoma Virus in the eucaryotic expression vector pSG5 (Stratagene). The resulting expression vectors pSGGAL-LXRalpha and pSGGAL-LXRbeta were used in cotransfection experiments together with the pGL3 luciferase reporter plasmid containing a minimal SV40 promoter (Promega) and five copies of the UAS GAL4 recognition site. 2.5 μg pSGGAL-LXRalpha or beta were mixed with […] pGL3 5xUAS and 22.5 μg pBluscript (Stratagene) in 0.95 mL ice cold PBS containing approx. 4-9 milj. U2/OS osteosarcoma cells. After a five minute incubation on ice the cell/DNA mixture was electroporated in 0.4 cm cuvettes at 960 μF, 230 V using a BioRad electroporator and diluted to 0.32 milj cells/mL in complete DMEM [Dulbecco's Modified Eagle Medium w/o phenol red, (Gibco 11880-028) including 10% FBS (Foetal Bovine Serum), 1% PEST (Penicillin Streptomycin), 20 mM Hepes, 2 mM L-Glutamine and 0.36% Glucose Gibco 31966-021] medium. […] Luciferase activity was measured as Luminescence in the Wallac Victor reader after 15 min. incubation at room temperature. […]

Molecule `CCCCN1C(=S)C(Nc2ccc(OC(F)F)cc2)=C(c2ccccc2)S1(=O)=O` [Example 1, 2-Butyl-4-{[4-(difluoromethoxy)phenyl]amino}-5-phenylisothiazole-3(2H)-thione 1,1-dioxide] has an EC50 of 960 nM.
